The results in this text go back to ChEMBL document CHEMBL4266023, “NMR-Based Investigation of Hydrogen Bonding in a Dihydroanthracen-1(4 H)one from Rubia philippinensis and Its Soluble Epoxide Hydrolase Inhibitory Potential” (J Nat Prod, 2018).

This assay has as its target T1, Bifunctional epoxide hydrolase 2 (Homo sapiens, UniProt P34913).
T1 sequence (P34913 whole entry): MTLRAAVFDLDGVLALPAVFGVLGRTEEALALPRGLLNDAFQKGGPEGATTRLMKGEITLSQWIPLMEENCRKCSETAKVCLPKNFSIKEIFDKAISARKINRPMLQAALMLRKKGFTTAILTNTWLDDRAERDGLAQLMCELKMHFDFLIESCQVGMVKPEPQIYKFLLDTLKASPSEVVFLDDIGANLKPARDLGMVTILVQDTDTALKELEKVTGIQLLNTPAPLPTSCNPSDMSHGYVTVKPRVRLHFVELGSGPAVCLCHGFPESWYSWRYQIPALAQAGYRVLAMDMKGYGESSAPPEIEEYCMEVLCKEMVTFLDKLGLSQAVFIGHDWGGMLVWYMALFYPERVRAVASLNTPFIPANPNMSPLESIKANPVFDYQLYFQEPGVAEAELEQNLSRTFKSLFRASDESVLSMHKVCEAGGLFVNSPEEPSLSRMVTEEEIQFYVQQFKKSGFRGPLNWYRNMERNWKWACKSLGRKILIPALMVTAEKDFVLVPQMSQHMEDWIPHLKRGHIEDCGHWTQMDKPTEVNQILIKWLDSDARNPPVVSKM
Nature of the assay: Inhibition of soluble epoxide hydrolase (unknown origin) using NEPC as substrate after 1 hr by fluorescence assay.

Broadly, the IC50 is the concentration at which inhibition is half-maximal. A low value points to greater potency in that assay. Turning to `Cc1ccc2c(O[C@@H]3O[C@H](CO)[C@@H](O)[C@H](O)[C@H]3O)c3ccccc3c(O[C@@H]3O[C@H](CO)[C@@H](O)[C@H](O)[C@H]3O)c2c1`, the IC50 worked out at 0.3 µM.
The same measure for `CC1=CC[C@@H]2C(=C(O)c3ccccc3[C@@H]2O)C1=O`: 1.1 µM.
